Measured values published in patent US20240018147A1, “SALT OF COMPOUND FOR DEGRADING BTK, CRYSTAL FORM THEREOF, AND USE THEREOF IN MEDICINE” (HAISCO PHARMACEUTICALS PTE. LTD., priority 2020, published 2024).
In brackets after ≈: the same amount, converted by molar mass.

Legend:
BTK protein = BTK protein (Mus musculus (Mouse), UniProt P35991); assay: Detection of BTK protein degradation in spleen of mice; format: in vivo; conditions: female ICR mice, intragastric, 3 consecutive days; conclusion in words
Procedure: Female ICR mice, 6-8 weeks old, were purchased from Beijing Vital River Laboratory Animal Technology Co., Ltd., and the experiment was started after 3 days of adaptation. After 3 consecutive days of intragastric administration of compounds at different doses, the spleens of mice were taken. The spleen cells were collected, lysed on ice for 15 min by adding RIPA lysis buffer (Beyotime, Cat. P0013B), and then centrifuged at 12000 rpm at 4° C. for 10 min. The protein sample of the supernatant was collected, subjected to protein quantification by using a BCA kit (Beyotime, Cat. P0009) and then diluted to 0.25 mg/mL. The expressions of BTK (CST, Cat. 8547S) and the internal reference R-actin (CST, Cat. 3700S) were detected by using a fully automated western blot quantitative analyzer (Proteinsimple). The expression level of BTK relative to the internal reference was calculated by using Compass software, and the DD50 value was calculated by using Origen9.2 software according to formula (2). Specifically, the BTKadministration denoted the expression level of BTK in administration groups at different doses, and the BTKvehicle denoted the expression level of BTK in the vehicle control group.
BTK %=BTKadministration/BTKvehicle×100% formula (2)

BTK = BTK (Homo sapiens (Human), UniProt Q06187); assay: Detection of BTK degradation in Mino cells; format: cell-based
Procedure: The Mino human mantle cell lymphoma cell line was purchased from ATCC and cultured under conditions of RPMI-1640+15% FBS+1% double antibody in a 37° C., 5% CO2 incubator. Cells were plated in a 6-well plate, with 5×10^5 cells/well. After plating, compounds at different concentrations were added and cultured in a 37° C., 5% CO2 incubator for 48 h. After culturing, the cells were collected. The cells were lysed on ice for 15 minutes by adding RIPA lysis buffer (Beyotime, Cat. P0013B) and centrifuged at 12000 rpm at 4° C. for 10 minutes. The protein sample of the supernatant was collected, subjected to protein quantification by using a BCA kit (Beyotime, Cat. P0009) and then diluted to 0.25 mg/mL. The expressions of BTK (CST, Cat. 85475) and the internal reference β-actin (CST, Cat. 37005) were detected using a fully automated western blot quantitative analyzer (Proteinsimple) with a kit (Protein simple, Cat. SM-W004). The expression level of BTK relative to the internal reference was calculated by using Compass software, and the DC50 value was calculated by using Origen9.2 software according to formula (1). Specifically, the BTKadministration denoted the expression level of BTK in administration groups at different doses, and the BTKvehicle denoted the expression level of BTK in the vehicle control group.
BTK %=BTKadministration/BTKvehicle×100 formula (1)

[1] = Solubility in water at 25° C.; format: physicochemical
Procedure: 7. Solubility Data in Water at 25° C.

[2] = Stability of crystal form of compound 1 and compound 3 (XRD); format: physicochemical; conditions: conclusion in words
Description: 6.1. Stability of crystal form of compound 1 and compound 3.

[3] = Pharmacokinetic test of dogs; format: in vivo; conditions: Beagle dogs, i.g. (10 mg/kg)
Procedure: Experimental objective: in this experiment, a single dose of each test compound was administered to Beagle dogs intravenously and intragastrically, the concentrations of the test compounds in plasma of dogs were measured, and the pharmacokinetic characteristics and bioavailability of the test compounds in dogs were evaluated.
Experimental animal: male Beagle dogs (about 8-11 kg, […], 6 dogs/compound), purchased from Beijing Marshall Biotechnology Co. Ltd.
The animals were fasted but with water available for 14 to 18 hours one day before administration, and were fed 4 hours after administration.
Sampling: before and after administration, 1.0 ml of blood was taken from jugular veins, and placed in an EDTAK2 centrifuge tube. Centrifugation was carried out at 5000 rpm at 4° C. for 10 m, and the plasma was collected.
Time points for plasma collection in G1& G2 groups: 0, 5 min, 15 min, 30 mi 1 h, 2 h, 4 h, 6 h, 8 h, 10 h, […] and 24 h.
Before analysis and detection, all samples were stored at −80° C. The samples were detected by using HPLC-MS/MS.

[4] = Chemical stability at high temperature (40° C.) and high humidity (RH 92.5%), purity by HPLC; format: physicochemical
Procedure: Samples were taken and tested at high temperature (40° C.) and under high humidity (RH 92.5%) respectively. The purity (represented by a percentage) was detected by HPLC.
With regard to methods for preparing test solutions and conditions for detecting purity by HPLC, reference was made to Tables 13, 14 and 15.

Chain of BTK (Q06187 whole entry): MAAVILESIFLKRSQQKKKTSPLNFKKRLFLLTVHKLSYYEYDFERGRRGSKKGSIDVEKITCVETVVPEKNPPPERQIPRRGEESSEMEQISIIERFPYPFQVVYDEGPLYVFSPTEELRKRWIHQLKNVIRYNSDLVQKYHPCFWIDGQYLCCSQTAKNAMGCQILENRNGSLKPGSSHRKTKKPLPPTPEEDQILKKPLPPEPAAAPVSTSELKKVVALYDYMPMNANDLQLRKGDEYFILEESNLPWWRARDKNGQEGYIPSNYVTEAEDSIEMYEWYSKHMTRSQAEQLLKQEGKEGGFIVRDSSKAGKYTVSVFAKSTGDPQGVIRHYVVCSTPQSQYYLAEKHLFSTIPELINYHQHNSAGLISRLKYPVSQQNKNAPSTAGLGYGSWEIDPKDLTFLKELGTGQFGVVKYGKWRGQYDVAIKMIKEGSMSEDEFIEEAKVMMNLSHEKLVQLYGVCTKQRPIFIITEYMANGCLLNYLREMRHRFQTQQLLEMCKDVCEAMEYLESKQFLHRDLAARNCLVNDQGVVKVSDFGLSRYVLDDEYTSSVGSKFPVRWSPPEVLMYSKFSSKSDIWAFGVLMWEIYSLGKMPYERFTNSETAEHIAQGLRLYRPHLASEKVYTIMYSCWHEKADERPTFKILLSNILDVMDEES
Chain of BTK protein (P35991 whole entry): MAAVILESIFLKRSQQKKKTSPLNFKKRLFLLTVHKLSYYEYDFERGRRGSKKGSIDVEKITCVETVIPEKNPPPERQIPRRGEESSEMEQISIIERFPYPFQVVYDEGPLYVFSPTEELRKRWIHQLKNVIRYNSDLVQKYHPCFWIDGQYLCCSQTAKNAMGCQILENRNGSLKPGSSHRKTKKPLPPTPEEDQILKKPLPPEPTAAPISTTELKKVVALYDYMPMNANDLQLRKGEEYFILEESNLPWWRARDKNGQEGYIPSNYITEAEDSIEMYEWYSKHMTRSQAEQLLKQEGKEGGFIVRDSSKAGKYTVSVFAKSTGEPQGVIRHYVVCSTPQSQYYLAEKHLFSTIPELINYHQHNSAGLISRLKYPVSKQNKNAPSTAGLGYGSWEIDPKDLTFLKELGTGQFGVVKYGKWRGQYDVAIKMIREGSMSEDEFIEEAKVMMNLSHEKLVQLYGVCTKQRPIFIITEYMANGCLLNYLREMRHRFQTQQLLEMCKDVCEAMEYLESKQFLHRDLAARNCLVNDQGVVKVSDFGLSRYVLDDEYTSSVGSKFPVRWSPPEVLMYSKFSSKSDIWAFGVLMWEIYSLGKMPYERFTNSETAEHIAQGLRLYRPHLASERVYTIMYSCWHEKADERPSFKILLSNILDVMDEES

Structure (SMILES)	degradation effect on BTK proteins in spleens of mice (BTK protein)	DC50 (BTK; Mino cells, 48 h, western blot, BTK relative to β-actin) [nM]	degradation effect on BTK in Mino cells (BTK; conclusion in words)	solubility [1] [µg/mL]	stability of crystal form [2]	Having bioavailability or not [3]	AUC(0-t) ([3]; male, dog, po, plasma) [ng·h/mL]	Purity by HPLC, 0 day ([4]; 0 day (initial), listed as Amorphous form of compound 1) [%]	chemical stability ([4]; 40° C. and RH 92.5%, purity by HPLC, conclusion in words)	Purity by HPLC, 92.5% RH 30 days ([4]; high humidity 92.5% RH, 30 days, listed as Amorphous form of compound 1) [%]	Purity by HPLC, 40° C. 30 days ([4]; high temperature 40° C., 30 days, listed as Amorphous form of compound 1) [%]
Nc1ncnc2c1c(-c1ccc(Oc3ccccc3)cc1)nn2C1CCN(C2CCN(C3CN(c4ccc5c(c4)C(=O)N(C4CCC(=O)NC4=O)C5=O)C3)CC2)CC1 (centres unmarked) [Compound 2, 5-(3-(4-(4-amino-3-(4-phenoxyphenyl)-1H-pyrazolo[3,4-d]pyrimidin-1-yl)-[1,4′-bipiperidin]-1′-yl)azetidin-1-yl)-2-(2,6-dioxopiperidin-3-yl)isoindoline-1,3-dione]	significant degradation effect	22.9	significant degradation effect	–	–	–	–	–	–	–	–
Nc1ncnc2c1c(-c1ccc(Oc3ccccc3)cc1)nn2C1CCN(C2CN(C3CN(c4ccc5c(c4)C(=O)N(C4CCC(=O)NC4=O)C5=O)C3)C2)CC1 (centres unmarked) [amorphous form of compound 1, 5-[3-[3-[4-[4-amino-3-(4-phenoxyphenyl)pyrazolo[3,4-d]pyrimidin-1-yl]-1-piperidyl]azetidin-1-yl]azetidin-1-yl]-2-(2,6-dioxo-3-piperidyl)isoindoline-1,3-dione]	–	–	–	9 (≈ 12 µM)	relatively good stability	Yes	26.9 ± 3.3	98.88	relatively good chemical stability	98.82	98.85
